Data on four compounds can be found in article doi:10.1101/2025.08.29.673196v2, “Development and characterization of Novel Small Molecule Inhibitors Targeting LAG-3 Protein” (biorxiv, 2025).

The assay addresses T1, LAG-3 (biotinylated LAG-3 of HTRF LAG-3/MHCII binding assay) (Homo sapiens, UniProt P18627).
T1 construct: gene LAG3; biotinylated LAG-3 reagent of Revvity HTRF LAG-3/MHCII kit
T1 sequence (P18627 23-450 limits assumed): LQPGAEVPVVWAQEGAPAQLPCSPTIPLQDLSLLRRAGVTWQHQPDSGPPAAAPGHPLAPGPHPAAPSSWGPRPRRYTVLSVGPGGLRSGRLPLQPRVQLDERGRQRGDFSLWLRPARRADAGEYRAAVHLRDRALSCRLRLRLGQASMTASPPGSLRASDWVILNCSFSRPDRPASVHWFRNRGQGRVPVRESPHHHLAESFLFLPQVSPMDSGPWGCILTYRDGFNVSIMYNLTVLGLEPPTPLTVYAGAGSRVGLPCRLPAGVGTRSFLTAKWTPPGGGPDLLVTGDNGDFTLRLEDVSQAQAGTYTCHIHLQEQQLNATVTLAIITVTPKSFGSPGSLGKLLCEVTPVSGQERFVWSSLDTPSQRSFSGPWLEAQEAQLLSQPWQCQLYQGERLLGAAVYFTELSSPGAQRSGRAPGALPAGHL
Nature of the assay: HTRF LAG-3/MHCII binding inhibition. (In general: TR-FRET usually uses a lanthanide donor and a delayed reading to cut background.)

As for `Cc1cc(=O)oc2cc(NC(=O)c3cc(NC(=O)c4ccccc4)ccc3Oc3ccc(C(=O)O)cc3)ccc12` [LG-125], the half-maximal inhibitory concentration (IC50) stood at 21000 nM. Under `Cc1cc(=O)oc2cc(NC(=O)c3cc(NC(=O)c4cccc(C5(C(F)(F)F)CCC5)c4)ccc3Oc3ccc(C(=O)O)cc3)ccc12` [LG-131] stands 602 nM. In the case of `COc1ccc(OC)c(NC(=O)C(=O)Nc2ccc(Oc3ccc(C(=O)O)cc3)c(C(=O)Nc3ccc4c(C)cc(=O)oc4c3)c2)c1` [LG-164] it was 371 nM; in that of `Cc1cc(=O)oc2cc(NC(=O)c3cc(NS(=O)(=O)N4CCC(c5ccccc5)CC4)ccc3Oc3ccc(C(=O)O)cc3)ccc12` [LG-193], 467 nM.

One may read the IC50 as the midpoint of a concentration-inhibition curve. A higher IC50 goes with weaker potency.
